This note sets out measurements from ChEMBL document CHEMBL5154926, “Discovery of a Novel Series of Imipridone Compounds as Homo sapiens Caseinolytic Protease P Agonists with Potent Antitumor Activities In Vitro and In Vivo” (J Med Chem, 2022).

The subject of data set [1] is HCT-116. The data set can be described thus: Induction of apoptosis in human HCT-116 cells assessed as viable cells at 25 nM incubated for 48 hrs by Annexin V/FITC staining based flow cytometric method (reference value: 97.66%). In kind it is functional. Particulars: read-out: Activity. Background: A flow cytometer gives signals particle by particle.
In data set [2] the target is Voltage-gated inwardly rectifying potassium channel KCNH2 (Homo sapiens, UniProt Q12809). The experiment in a line: Inhibition of hERG expressed in HEK293 cells by automated patch clamp assay. Type of data set: toxicity, cell-based.
Voltage-gated inwardly rectifying potassium channel KCNH2, sequence (Q12809 whole entry): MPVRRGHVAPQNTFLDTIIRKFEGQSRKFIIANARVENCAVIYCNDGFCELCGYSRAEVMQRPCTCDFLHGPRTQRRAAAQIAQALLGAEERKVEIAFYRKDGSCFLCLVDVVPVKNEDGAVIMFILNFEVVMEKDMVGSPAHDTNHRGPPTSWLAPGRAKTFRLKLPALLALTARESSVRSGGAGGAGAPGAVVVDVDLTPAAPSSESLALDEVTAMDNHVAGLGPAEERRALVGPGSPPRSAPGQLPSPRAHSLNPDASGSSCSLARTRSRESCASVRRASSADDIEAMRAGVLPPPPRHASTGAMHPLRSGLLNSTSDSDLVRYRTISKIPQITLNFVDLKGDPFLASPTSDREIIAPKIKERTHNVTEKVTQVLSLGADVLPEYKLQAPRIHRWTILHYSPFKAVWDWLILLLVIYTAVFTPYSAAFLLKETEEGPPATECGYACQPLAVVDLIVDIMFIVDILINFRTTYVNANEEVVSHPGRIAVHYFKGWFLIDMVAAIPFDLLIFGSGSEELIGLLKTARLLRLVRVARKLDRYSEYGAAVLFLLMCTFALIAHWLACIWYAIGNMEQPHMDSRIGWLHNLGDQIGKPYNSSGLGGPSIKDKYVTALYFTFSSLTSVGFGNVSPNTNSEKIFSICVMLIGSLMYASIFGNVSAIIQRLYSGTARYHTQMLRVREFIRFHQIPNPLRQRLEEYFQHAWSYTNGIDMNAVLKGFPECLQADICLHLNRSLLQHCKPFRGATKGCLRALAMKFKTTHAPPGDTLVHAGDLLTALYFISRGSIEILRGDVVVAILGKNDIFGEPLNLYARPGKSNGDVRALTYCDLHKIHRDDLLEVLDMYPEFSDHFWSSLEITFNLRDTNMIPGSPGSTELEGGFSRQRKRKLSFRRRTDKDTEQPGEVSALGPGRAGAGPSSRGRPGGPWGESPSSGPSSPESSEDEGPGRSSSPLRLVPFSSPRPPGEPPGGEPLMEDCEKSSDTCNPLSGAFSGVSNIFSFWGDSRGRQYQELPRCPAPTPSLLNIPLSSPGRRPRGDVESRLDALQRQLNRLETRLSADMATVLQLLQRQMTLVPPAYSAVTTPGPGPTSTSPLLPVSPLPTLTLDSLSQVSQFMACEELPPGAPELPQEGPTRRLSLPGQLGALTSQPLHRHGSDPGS
The subject of data set [3] is HCT-116. The experiment in a line: Induction of apoptosis in human HCT-116 cells assessed as early apoptotic cells at 50 nM incubated for 48 hrs by Annexin V/FITC staining based flow cytometric method (reference value: […]). Type of data set: functional.
In data set [4] the test system is HCT-116. The experiment in a line: Induction of apoptosis in human HCT-116 cells assessed as early apoptotic cells at 12.5 nM incubated for 48 hrs by Annexin V/FITC staining based flow cytometric method (reference value: […]). In kind it is functional.
For data set [5], the system named is HCT-116. The data set can be described thus: Induction of cell cycle arrest in human HCT-116 cells assessed as accumulation of cells at G0/G1 phase at 50 nM incubated for 48 hrs propidium iodide based flow cytometric analysis (reference value: 26 %). In kind it is functional.
The subject of data set [6] is HCT-116. The experiment in a line: Induction of apoptosis in human HCT-116 cells assessed as late apoptotic cells at 25 nM incubated for 48 hrs by Annexin V/FITC staining based flow cytometric method (reference value: 1.57%). Type of data set: functional.
Data set [7] is described as follows: Stability in human liver microsomes assessed as half life at 1.5 uM measured upto 90 mins in presence of NADPH by LC/MS analysis. Type of data set: ADME, Microsome. The settings on record: human liver microsomes.
The test system of data set [8] is HCT-116. The data set can be described thus: Induction of apoptosis in human HCT-116 cells assessed as early apoptotic cells at 25 nM incubated for 48 hrs by Annexin V/FITC staining based flow cytometric method (reference value: […]). Type of data set: functional.
Data set [9] relates to HCT-116. The data set can be described thus: Induction of apoptosis in human HCT-116 cells assessed as late apoptotic cells at 12.5 nM incubated for 48 hrs by Annexin V/FITC staining based flow cytometric method (reference value: 1.57%). In kind it is functional.
In data set [10] the test system is HCT-116. The experiment in a line: Induction of apoptosis in human HCT-116 cells assessed as necrotic cells at 12.5 nM incubated for 48 hrs by Annexin V/FITC staining based flow cytometric method (reference value: 0.05%). Type of data set: functional.
In data set [11] the test system is HCT-116. The experiment in a line: Induction of apoptosis in human HCT-116 cells assessed as necrotic cells at 50 nM incubated for 48 hrs by Annexin V/FITC staining based flow cytometric method (reference value: 0.05%). In kind it is functional.
Data set [12] in a line: Stability in rat liver microsomes assessed as half life at 1.5 uM measured upto 90 mins in presence of NADPH by LC/MS analysis. The settings on record: 1.5 h. In kind it is ADME, Microsome. Background: Microsomes from liver hold many membrane-bound enzymes, among them those of drug oxidation.
Data set [13] concerns HCT-116. The experiment in a line: Induction of ROS generation in human HCT-116 cells at 50 nM measured after 24 hrs by DHE staining based fluorescence assay (reference value: […] %). Type of data set: functional.
In data set [14] the test system is HCT-116. The experiment in a line: Induction of apoptosis in human HCT-116 cells assessed as late apoptotic cells at 50 nM incubated for 48 hrs by Annexin V/FITC staining based flow cytometric method (reference value: 1.57%). Type of data set: functional.
The subject of data set [15] is HCT-116. The data set can be described thus: Induction of cell cycle arrest in human HCT-116 cells assessed as accumulation of cells at G0/G1 phase at 12.5 nM incubated for 48 hrs propidium iodide based flow cytometric analysis (reference value: 26 %). In kind it is functional.
The test system of data set [16] is HCT-116. The experiment in a line: Induction of apoptosis in human HCT-116 cells assessed as viable cells at 12.5 nM incubated for 48 hrs by Annexin V/FITC staining based flow cytometric method (reference value: 97.66%). Type of data set: functional. Particulars: read-out: Activity.
Data set [17] in a line: 1-octanol/water partition coefficient, log P of the compound agitated for 4 hrs measured by shake flask assay based HPLC analysis. Type of data set: physicochemical.
A short description of data set [18]: Stability in human liver microsomes assessed as intrinsic clearance at 1.5 uM measured upto 90 mins in presence of NADPH by LC/MS analysis. Type of data set: ADME, Microsome. The settings on record: read-out: CLH.
Data set [19] has as its system HCT-116. The data set can be described thus: Induction of ROS generation in human HCT-116 cells at 12.5 nM measured after 24 hrs by DHE staining based fluorescence assay (reference value: […] %). Type of data set: functional.
The nature of data set [20]: Aqueous solubility of the compound agitated for 24 hrs by HPLC analysis. Type of data set: physicochemical. Particulars: buffer.
The subject of data set [21] is HCT-116. The data set can be described thus: Induction of ROS generation in human HCT-116 cells at 25 nM measured after 24 hrs by DHE staining based fluorescence assay (reference value: […] %). Type of data set: functional.
The subject of data set [22] is HCT-116. The data set can be described thus: Induction of apoptosis in human HCT-116 cells assessed as viable cells at 50 nM incubated for 48 hrs by Annexin V/FITC staining based flow cytometric method (reference value: 97.66%). In kind it is functional. The settings on record: read-out: Activity.
Data set [23] has as its system HCT-116. The data set can be described thus: Induction of apoptosis in human HCT-116 cells assessed as necrotic cells at 25 nM incubated for 48 hrs by Annexin V/FITC staining based flow cytometric method (reference value: 0.05%). In kind it is functional.

In brackets after ≈: the same amount, converted by molar mass.

`O=c1nc2n(c3c1CN(Cc1ccccc1)CC3)CCN2Cc1ccc(F)c(Br)c1`: the viability at […] in the data set with HCT-116 [1] came out at 94.7%. Also, the IC50 (usually the concentration that inhibits the measured activity by half) in [2] came to 4.91 µM. Besides, the Activity is reported as 3.16% with HCT-116 [3]; 1.27% in the data set with HCT-116 [4]; 55% in the data set with HCT-116 [5]; 3% in the data set with HCT-116 [6]; 2.14% in the data set on HCT-116 [8]; 2.82% in the data set with HCT-116 [9]. Further, the Activity is 0.07% in the data set on HCT-116 [10]; 0.16% in the data set on HCT-116 [11]; 99.4% with HCT-116 [13]; 5.12% with HCT-116 [14]; 40% with HCT-116 [15]; 99.46% in the data set on HCT-116 [19]. For the same compound, the Activity in the data set with HCT-116 [21] was 97.9%; with HCT-116 [23], 0.12%. The half-life (commonly how long it takes for the measured level to halve) at 1.5 µM in [7] was 13 min. The t1/2 in data set [12] was found to be 16.1 min. Also, in the data set on HCT-116 [16], the viability at 0.0125 µM came out at 95.8%. Besides, the logP (usually the decadic logarithm of the partition coefficient of the neutral form, usually between octanol and water) at 4 h in data set [17] worked out at 3.21. Besides, the CLint scaled at 1.5 µM in data set [18] was 134 mL/min/kg. For the same compound, the concentration in solution in [20] (solubility at 24 h) came to 100 µM (≈ 47.1 µg/mL). In addition, the viability at 0.05 µM in the data set on HCT-116 [22] amounted to 91.6%.
